We go through 17 compounds from patent publication US20260159512A1, “BCAT2 INHIBITORS” (AGIOS PHARMACEUTICALS, INC., priority 2021, published 2026).

What all share (conditions): average where tested multiple times
Experiment [1] concerns the target T1, BCAT2 (Homo sapiens, UniProt O15382).
T1 sequence (O15382 28-392): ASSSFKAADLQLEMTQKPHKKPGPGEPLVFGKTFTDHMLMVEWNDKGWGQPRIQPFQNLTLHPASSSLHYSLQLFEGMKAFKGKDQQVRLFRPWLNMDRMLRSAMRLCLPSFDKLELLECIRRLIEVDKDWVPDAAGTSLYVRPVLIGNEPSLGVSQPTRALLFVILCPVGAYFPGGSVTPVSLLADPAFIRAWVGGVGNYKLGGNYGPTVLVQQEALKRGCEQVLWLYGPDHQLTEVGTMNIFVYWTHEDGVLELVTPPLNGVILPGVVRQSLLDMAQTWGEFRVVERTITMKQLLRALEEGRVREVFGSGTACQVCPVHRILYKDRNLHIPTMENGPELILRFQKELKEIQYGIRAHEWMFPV
The experiment in a line: BCAT2 in vitro cell inhibition using engineered A549 cells (KMV cell assay, 13C6-KMV by LC-MS/MS). The class given is cell-based. On the set-up: The result was an engineered A549 cell line that expressed endogenous BCAT2; endogenous in cells; host or cells: A549 cells with MUT and BCAT1 knocked out by CRISPR/CAS9; key to BCAT2 Cell Inhibition: A: less than or equal to 0.100 μM; B: greater than 0.100 and less than or equal to 0.500 μM; C: greater than 0.500 and less than or equal to 1.000 μM; d: greater than 1.000 μM; E: no fit.

In experiment [2] the target is T1, BCAT2. The experiment in a line: BCAT2 in vitro enzyme inhibition assay (resazurin/diaphorase-coupled fluorescence). The class given is biochemical. In outline: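 Coupled fluorescence readout: glutamate formed from L-leucine/α-ketoglutarate transamination drives GDH/NAD/diaphorase reduction of resazurin (Ex 540/Em 590). Human BCAT2 was first exposed 1 h at room temperature to compound, top final 100 μM in 3-fold, 10-point series; substrate reaction ran 1 h before SDS quench, in technical duplicate with DMSO max and enzyme-free min controls.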
(Alamar Blue is a resazurin reagent that responds to reducing activity.)

Experiment [3] has as its target T2, hBCAT1 (Homo sapiens, UniProt P54687).
T2 sequence (P54687 1-386): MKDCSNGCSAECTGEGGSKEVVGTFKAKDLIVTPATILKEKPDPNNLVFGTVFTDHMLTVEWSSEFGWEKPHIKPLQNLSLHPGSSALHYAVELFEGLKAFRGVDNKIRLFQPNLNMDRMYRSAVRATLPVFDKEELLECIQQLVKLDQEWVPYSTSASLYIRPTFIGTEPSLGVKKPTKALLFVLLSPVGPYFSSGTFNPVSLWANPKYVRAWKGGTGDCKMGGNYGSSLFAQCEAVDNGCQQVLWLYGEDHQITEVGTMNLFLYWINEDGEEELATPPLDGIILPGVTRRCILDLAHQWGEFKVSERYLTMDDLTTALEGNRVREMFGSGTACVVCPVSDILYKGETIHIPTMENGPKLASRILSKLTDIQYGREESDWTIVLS
Nature of the experiment: BCAT1 in vitro enzyme inhibition assay (resazurin/diaphorase-coupled fluorescence). The class given is biochemical. The essentials:
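Human BCAT1 activity read by resazurin/diaphorase-coupled fluorescence. Compounds added from 50× DMSO stocks at 1:50, giving 10-point 3-fold titrations from 100 μM top final concentration. Run in technical duplicate; repeat tests averaged.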

“And” between values parts separate entries of the source, which are not always exact repeats. Identical values can stand only once. A value given as a limit tells only on which side of the number the result lay.

Usually IC50 stands for the concentration that inhibits the measured activity by half. Take `Cc1cnn(-c2cc3c(cn2)nc(CC(C)C)n3[C@@H]2CCC[C@H](NC(=O)c3ncc(Cl)s3)[C@H]2O)n1` [Example 243, 5-chloro-N-((1S,2R,3R)-2-hydroxy-3-(2-isobutyl-6-(4-methyl-2H-1,2,3-triazol-2-yl)-1H-imidazo[4,5-c]pyridin-1-yl)cyclohexyl)thiazole-2-carboxamide]: the IC50 was not above 100 nM in experiment [1], not above 100 nM in experiment [2] and less than 500 nM in experiment [3].
For the compound `CC(=O)N1CC(NC(=O)c2ncc(C(F)F)s2)CC(n2c(-c3ccccn3)nc3cnc(-n4nccn4)cc32)C1` (stereo not shown) [Example 121, N-(1-acetyl-5-(2-(pyridin-2-yl)-6-(2H-1,2,3-triazol-2-yl)-1H-imidazo[4,5-c]pyridin-1-yl)piperidin-3-yl)-5-(difluoromethyl)thiazole-2-carboxamide], the IC50 in experiment [1] is 100 to 500 nM; in experiment [2], not above 100 nM; in experiment [3], 500 to 1000 nM.
`CC(C)Cc1nc2cnc(-c3ncnn3C)cc2n1[C@@H]1CCC[C@H](NC(=O)c2ncc(Cl)s2)C1` [Example 164, 5-chloro-N-((1S,3R)-3-(2-isobutyl-6-(1-methyl-1H-1,2,4-triazol-5-yl)-1H-imidazo[4,5-c]pyridin-1-yl)cyclohexyl)thiazole-2-carboxamide]: the “BCAT2 Cell Inhibition” value in experiment [1] is “E”. Further, the IC50 in experiment [1] was 100 to 500 nM; in experiment [2] it was 100 to 500 nM and 500 to 1000 nM; in experiment [3], more than 5000 nM.
As to `CC(C)Cc1nc2cnc(-n3ncc(C(C)O)n3)cc2n1[C@@H]1CCC[C@H](NC(=O)c2ncc(Cl)s2)C1` (stereo partly drawn) [Example 350, 5-chloro-N-((1S,3R)-3-(6-(4-(1-hydroxyethyl)-2H-1,2,3-triazol-2-yl)-2-isobutyl-1H-imidazo[4,5-c]pyridin-1-yl)cyclohexyl)thiazole-2-carboxamide], the IC50 was 100 to 500 nM in experiment [1], not above 100 nM in experiment [2] and 500 to 1000 nM in experiment [3].
For `COc1cccc(F)c1-c1nc2cnc(-c3nc[nH]n3)cc2n1[C@@H]1CCC[C@H](NC(=O)c2ccc(Cl)s2)C1` [Example 347, 5-chloro-N-((1S,3R)-3-(2-(2-fluoro-6-methoxyphenyl)-6-(1H-1,2,4-triazol-3-yl)-1H-imidazo[4,5-c]pyridin-1-yl)cyclohexyl)thiophene-2-carboxamide], in that order: not above 100 nM, not above 100 nM and less than 500 nM.
For `N#Cc1ccccc1-c1nc2cnc(-c3nc[nH]n3)cc2n1[C@@H]1CCC[C@H](NC(=O)c2ccc(Cl)s2)C1` [Example 356, 5-chloro-N-((1S,3R)-3-(2-(2-cyanophenyl)-6-(1H-1,2,4-triazol-3-yl)-1H-imidazo[4,5-c]pyridin-1-yl)cyclohexyl)thiophene-2-carboxamide], in that order: not above 100 nM, not above 100 nM and 500 to 1000 nM.
For `O=C(N[C@H]1CCC[C@@H](n2c(-c3ccccn3)nc3cnc(-n4ccnn4)cc32)C1)c1ccc(Br)s1` [Example 10, 5-bromo-N-((1S,3R)-3-(2-(pyridin-2-yl)-6-(1H-1,2,3-triazol-1-yl)-1H-imidazo[4,5-c]pyridin-1-yl)cyclohexyl)thiophene-2-carboxamide], in that order: 500 to 1000 nM, not above 100 nM and 1000 to 5000 nM.
As for `CC(C)Cc1nc2cnc(-c3nc[nH]n3)cc2n1[C@@H]1C[C@@H](O)C[C@H](NC(=O)c2ncc(Cl)s2)C1` [Example 256, 5-chloro-N-((1R,3S,5S)-3-hydroxy-5-(2-isobutyl-6-(1H-1,2,4-triazol-3-yl)-1H-imidazo[4,5-c]pyridin-1-yl)cyclohexyl)thiazole-2-carboxamide], the IC50 is not above 100 nM in experiment [1], not above 100 nM in experiment [2] and less than 500 nM in experiment [3].
For `O=C(N[C@H]1CCC[C@@H](n2c(-c3ncccc3F)nc3cnc(-c4cc[nH]n4)cc32)C1)c1ncc(C(F)F)s1` [Example 55, 5-(difluoromethyl)-N-((1S,3R)-3-(2-(3-fluoropyridin-2-yl)-6-(1H-pyrazol-3-yl)-1H-imidazo[4,5-c]pyridin-1-yl)cyclohexyl)thiazole-2-carboxamide], the values for the IC50 in experiment [1], in experiment [2] and in experiment [3] were not above 100 nM, not above 100 nM and less than 500 nM, respectively.
As to `CC(C)[C@H](O)c1nc2cnc(-c3ncccn3)cc2n1[C@@H]1CCC[C@H](NC(=O)c2ncc(Cl)s2)C1` [Example 171, 5-chloro-N-((1S,3R)-3-(2-((S)-1-hydroxy-2-methylpropyl)-6-(pyrimidin-2-yl)-1H-imidazo[4,5-c]pyridin-1-yl)cyclohexyl)thiazole-2-carboxamide], the results for the IC50 in experiment [1], in experiment [2] and in experiment [3] were more than 1000 nM, not above 100 nM and less than 500 nM, respectively.
Take `O=C(N[C@H]1CCC[C@@H](n2c(-c3ncccc3F)nc3cnc(-n4nccn4)cc32)C1)c1ncc(C(F)(F)F)s1` [Example 65, N-((1S,3R)-3-(2-(3-fluoropyridin-2-yl)-6-(2H-1,2,3-triazol-2-yl)-1H-imidazo[4,5-c]pyridin-1-yl)cyclohexyl)-5-(trifluoromethyl)thiazole-2-carboxamide]: the IC50 in experiment [1] is not above 100 nM; in experiment [2], not above 100 nM; in experiment [3] it was 500 to 1000 nM.
Consider `CC(C)Cc1nc2cnc(-c3cc(C(F)(F)F)n[nH]3)cc2n1[C@@H]1CCC[C@H](NC(=O)c2ncc(Cl)s2)[C@H]1O` [Example 216, 5-chloro-N-((1S,2R,3R)-2-hydroxy-3-(2-isobutyl-6-(3-(trifluoromethyl)-1H-pyrazol-5-yl)-1H-imidazo[4,5-c]pyridin-1-yl)cyclohexyl)thiazole-2-carboxamide], for which the IC50 was more than 1000 nM in experiment [1], 100 to 500 nM in experiment [2] and 1000 to 5000 nM in experiment [3].
For `CO[C@H]1C[C@H](NC(=O)c2ncc(Cl)s2)C[C@H](n2c(CC(C)C)nc3cnc(-c4ncc(C)o4)cc32)C1` (single isomer, unassigned) [Example 427], in that order: 100 to 500 nM, not above 100 nM and 500 to 1000 nM.
In the case of `CC(C)[C@H](N)c1nc2cnc(-c3ccccn3)cc2n1[C@@H]1CCC[C@H](NC(=O)c2ncc(Cl)s2)C1` [Example 166, N-((1S,3R)-3-(2-((S)-1-amino-2-methylpropyl)-6-(pyridin-2-yl)-1H-imidazo[4,5-c]pyridin-1-yl)cyclohexyl)-5-chlorothiazole-2-carboxamide], the results for the IC50 in experiment [1], in experiment [2] and in experiment [3] were 100 to 500 nM, not above 100 nM and less than 500 nM, respectively.
In the case of `O=C(N[C@H]1CCC[C@@H](n2c(-c3ccccc3F)nc3cnc(N4CCCC4CO)cc32)C1)c1ncc(Cl)s1` (stereo partly drawn) [Example 196, 5-chloro-N-((1S,3R)-3-(2-(2-fluorophenyl)-6-(2-(hydroxymethyl)pyrrolidin-1-yl)-1H-imidazo[4,5-c]pyridin-1-yl)cyclohexyl)thiazole-2-carboxamide], the values for the IC50 in experiment [1], in experiment [2] and in experiment [3] were not above 100 nM, not above 100 nM and less than 500 nM, respectively.
As to `CC(C)(C)Cc1nc2cnc(-c3ccccn3)cc2n1[C@@H]1CCC[C@H](NC(=O)c2ncc(Cl)s2)C1` [Example 381, 5-chloro-N-((1S,3R)-3-(2-neopentyl-6-(pyridin-2-yl)-1H-imidazo[4,5-c]pyridin-1-yl)cyclohexyl)thiazole-2-carboxamide], the IC50 in experiment [1] is 100 to 500 nM; in experiment [2], not above 100 nM; in experiment [3] it was 1000 to 5000 nM.
Turning to `CO[C@@H]1C[C@@H](NC(=O)c2ncc(Cl)s2)C[C@@H](n2c(CC(C)C)nc3cnc(-c4nc[nH]n4)cc32)C1` (stereo in doubt) [Example 414, 5-chloro-N-((1S,3R,5R)-3-(2-isobutyl-6-(1H-1,2,4-triazol-3-yl)-1H-imidazo[4,5-c]pyridin-1-yl)-5-methoxycyclohexyl)thiazole-2-carboxamide], the IC50 in experiment [1] was not above 100 nM; in experiment [2], not above 100 nM; in experiment [3] it was less than 500 nM.
